Read-outs that look alike come from different tables or passages of the source.
Columns and labels:
B-Raf = B-Raf (Homo sapiens, UniProt P15056); assay: Luciferase-coupled chemiluminescence kinase assay (ATP consumption), B-Raf; assay type: biochemical
Protocol: (§1) Tyrosine kinase activity is determined by 1) measurement of kinase-dependent ATP consumption by in the presence of a generic substrate such as […], tyrosine (pEY), by luciferase/luciferin-mediated chemiluminescence or; 2) incorporation of radioactive phosphate derived from ^33P-ATP into a generic substrate which has been adsorbed onto the well surface of polystyrene microtiter plates. Phosphorylated substrate products are quantified by scintillation spectrometry.
(§2) Luciferase-Coupled Chemiluminescence Assay Protocol
(§3) Kinase activity is measured as the percent of ATP consumed following the kinase reaction using luciferase-luciferin-coupled chemiluminescence. Reactions were conducted in 384-well white, medium binding microtiter plates (Greiner). Kinase reactions were initiated by combining test compounds, ATP and kinase in a 20 uL volume. The reaction mixture was incubated at ambient temperature for 3 hrs. For c-Raf, B-Raf, and B-RafV599E, […] of the enzyme was pre-incubated with compound in 20 mM Tris pH 7.5, 10 mM MgCl2, 0.03% TX-100, and 1 mM DTT for 30 minutes at room temperature. Following the kinase reaction, a 20 μL aliquot of luciferase-luciferin mix was added and the chemiluminescence signal measured using a Victor^2 plate reader (Perkin Elmer). The luciferase-luciferin mix contained 50 mM HEPES, pH 7.8, 67 mM oxalic acid (pH 7.8), 5 (or 50) mM DTT, 0.4% Triton X-100, 0.25 mg/mL coenzyme A, 63 μM AMP, 28 μg/mL luciferin and 40,000 units/mL luciferase. Total ATP consumption was limited to 25-60% and the IC50 values correlate well with those determined by radiometric assays.

c-Raf = c-Raf (Homo sapiens, UniProt P04049); assay: Luciferase-coupled chemiluminescence kinase assay (ATP consumption), c-Raf; assay type: biochemical; settings: read-out: cRaf-1 IC50
Sequence of c-Raf (P04049 whole entry): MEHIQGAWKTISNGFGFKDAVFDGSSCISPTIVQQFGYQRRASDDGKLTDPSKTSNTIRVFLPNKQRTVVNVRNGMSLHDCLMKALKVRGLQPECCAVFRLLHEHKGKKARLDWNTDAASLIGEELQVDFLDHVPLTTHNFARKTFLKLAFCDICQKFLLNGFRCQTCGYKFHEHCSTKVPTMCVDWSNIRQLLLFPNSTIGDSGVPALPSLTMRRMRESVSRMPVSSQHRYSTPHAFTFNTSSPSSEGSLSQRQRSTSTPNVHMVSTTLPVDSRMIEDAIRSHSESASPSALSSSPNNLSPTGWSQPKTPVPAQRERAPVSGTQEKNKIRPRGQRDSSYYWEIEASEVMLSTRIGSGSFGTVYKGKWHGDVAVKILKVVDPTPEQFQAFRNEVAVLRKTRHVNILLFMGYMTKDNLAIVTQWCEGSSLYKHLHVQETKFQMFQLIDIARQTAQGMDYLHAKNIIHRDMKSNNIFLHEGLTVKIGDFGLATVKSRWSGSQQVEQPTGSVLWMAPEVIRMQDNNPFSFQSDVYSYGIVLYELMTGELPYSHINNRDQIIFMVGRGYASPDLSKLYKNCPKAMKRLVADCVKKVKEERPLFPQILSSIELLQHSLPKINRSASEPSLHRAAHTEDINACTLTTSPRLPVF
Protocol: as §1, §2, §3

[1] = read-out: bRaf (inhibition indicated as IC50)

Sequence of B-Raf (P15056 whole entry): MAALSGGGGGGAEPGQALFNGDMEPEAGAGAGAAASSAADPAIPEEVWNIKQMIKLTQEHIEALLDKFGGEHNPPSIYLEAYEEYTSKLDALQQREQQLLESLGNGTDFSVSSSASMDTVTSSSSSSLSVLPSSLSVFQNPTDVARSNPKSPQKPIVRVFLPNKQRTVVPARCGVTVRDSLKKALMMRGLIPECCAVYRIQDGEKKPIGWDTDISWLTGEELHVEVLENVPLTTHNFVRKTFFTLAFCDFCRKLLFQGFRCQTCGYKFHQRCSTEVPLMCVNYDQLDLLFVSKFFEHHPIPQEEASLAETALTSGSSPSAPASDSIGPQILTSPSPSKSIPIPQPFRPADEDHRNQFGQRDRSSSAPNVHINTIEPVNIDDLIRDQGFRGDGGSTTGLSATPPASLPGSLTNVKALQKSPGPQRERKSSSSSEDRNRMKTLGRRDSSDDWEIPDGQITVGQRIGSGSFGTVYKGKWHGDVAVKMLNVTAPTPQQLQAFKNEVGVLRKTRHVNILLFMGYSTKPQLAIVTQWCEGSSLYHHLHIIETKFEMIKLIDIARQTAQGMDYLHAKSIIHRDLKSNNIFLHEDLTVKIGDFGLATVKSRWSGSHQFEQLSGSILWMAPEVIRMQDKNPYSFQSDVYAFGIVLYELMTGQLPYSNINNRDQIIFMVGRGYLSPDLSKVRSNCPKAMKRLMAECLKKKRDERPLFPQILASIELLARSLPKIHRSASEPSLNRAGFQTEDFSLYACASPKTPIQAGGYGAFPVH

Row | SMILES | IC50 (B-Raf; read-out: bRaf IC50) | IC50 (c-Raf) | IC50 (B-Raf; [1])
1 | O=C1COc2ccc(C3(O)c4ccccc4C(=O)N3Cc3ccccc3Cl)cc2N1 (centres unmarked) [Entry 35, 6-{2-[(2-chlorophenyl)methyl]-1-hydroxy-3-oxo-2,3-dihydro-1H-isoindol-1-yl}-2H-1,4-benzoxazin-3(4H)-one] | ≥ 10 µM | 1 to 10 µM | 
2 | O=C1COc2ccc(C3(O)c4ccccc4C(=O)N3Cc3cccc(F)c3)cc2N1 (centres unmarked) [Entry 36, 6-{2-[(3-fluorophenyl)methyl]-1-hydroxy-3-oxo-2,3-dihydro-1H-isoindol-1-yl}-2H-1,4-benzoxazin-3(4H)-one] | 1 to 10 µM | 1 to 10 µM | 
3 | O=C1COc2ccc(C3(O)c4ccccc4C(=O)N3Cc3ccccc3Br)cc2N1 (centres unmarked) [Entry 37, 6-{2-[(2-bromophenyl)methyl]-1-hydroxy-3-oxo-2,3-dihydro-1H-isoindol-1-yl}-2H-1,4-benzoxazin-3(4H)-one] | ≥ 10 µM | ≥ 10 µM | 
4 | O=C1COc2ccc(C3(O)c4ccccc4C(=O)N3Cc3ccccc3F)cc2N1 (centres unmarked) [Entry 38, 6-{2-[(2-fluorophenyl)methyl]-1-hydroxy-3-oxo-2,3-dihydro-1H-isoindol-1-yl}-2H-1,4-benzoxazin-3(4H)-one] | ≥ 10 µM | 1 to 10 µM | 
5 | O=C1COc2ccc(C3(O)c4ccccc4C(=O)N3c3cccc(F)c3)cc2N1 (centres unmarked) [Entry 39, 6-[2-(3-fluorophenyl)-1-hydroxy-3-oxo-2,3-dihydro-1H-isoindol-1-yl]-2H-1,4-benzoxazin-3(4H)-one] | 1 to 10 µM | 0.1 to 1 µM | 
6 | O=C1COc2ccc(C3(O)c4ccccc4C(=O)N3c3cccc(I)c3)cc2N1 (centres unmarked) [Entry 40, 6-[1-hydroxy-2-(3-iodophenyl)-3-oxo-2,3-dihydro-1H-isoindol-1-yl]-2H-1,4-benzoxazin-3(4H)-one] | 0.1 to 1 µM | < 0.1 µM | 
7 | O=C1COc2ccc(C3(O)c4ccccc4C(=O)N3c3cccc(Br)c3)cc2N1 (centres unmarked) [Entry 41, 6-[2-(3-bromophenyl)-1-hydroxy-3-oxo-2,3-dihydro-1H-isoindol-1-yl]-2H-1,4-benzoxazin-3(4H)-one] | 0.1 to 1 µM | < 0.1 µM | 
8 | O=C1COc2ccc(C3(O)c4ccccc4C(=O)N3c3cccc([N+](=O)[O-])c3)cc2N1 (centres unmarked) [Entry 42, 6-[1-hydroxy-2-(3-nitrophenyl)-3-oxo-2,3-dihydro-1H-isoindol-1-yl]-2H-1,4-benzoxazin-3(4H)-one] | 1 to 10 µM | 0.1 to 1 µM | 
9 | COc1cccc(N2C(=O)c3ccccc3C2(O)c2ccc3c(c2)NC(=O)CO3)c1 (centres unmarked) [Entry 43, 6-{1-hydroxy-2-[3-(methyloxy)phenyl]-3-oxo-2,3-dihydro-1H-isoindol-1-yl}-2H-1,4-benzoxazin-3(4H)-one] | 0.1 to 1 µM | 0.1 to 1 µM | 
10 | Cc1cccc(N2C(=O)c3ccccc3C2(O)c2ccc3c(c2)NC(=O)CO3)c1 (centres unmarked) [Entry 44, 6-[1-hydroxy-2-(3-methylphenyl)-3-oxo-2,3-dihydro-1H-isoindol-1-yl]-2H-1,4-benzoxazin-3(4H)-one] | 0.1 to 1 µM | 0.1 to 1 µM | 
11 | Nc1ccccc1N1C(=O)c2ccccc2C1(O)c1ccc2c(c1)NC(=O)CO2 (centres unmarked) [Entry 47, 6-[2-(2-aminophenyl)-1-hydroxy-3-oxo-2,3-dihydro-1H-isoindol-1-yl]-2H-1,4-benzoxazin-3(4H)-one] | 0.1 to 1 µM | 0.1 to 1 µM | 
12 | O=C1COc2ccc(C(=O)c3ccccc3-c3nc(-c4ccccc4)no3)cc2N1 [Entry 48, 6-{[2-(3-phenyl-1,2,4-oxadiazol-5-yl)phenyl]carbonyl}-2H-1,4-benzoxazin-3(4H)-one] | ≥ 10 µM | ≥ 10 µM | 
13 | O=C1COc2ccc(C(=O)c3ccccc3-c3nc4ccccc4[nH]3)cc2N1 [Entry 49, 6-{[2-(1H-benzimidazol-2-yl)phenyl]carbonyl}-2H-1,4-benzoxazin-3(4H)-one] | ≥ 10 µM | ≥ 10 µM | 
14 | O=C1COc2ccc(C3(O)c4ccccc4C(=O)N3Cc3ccccc3C(F)(F)F)cc2N1 (centres unmarked) [Entry 50, 6-(1-hydroxy-3-oxo-2-{[2-(trifluoromethyl)phenyl]methyl}-2,3-dihydro-1H-isoindol-1-yl)-2H-1,4-benzoxazin-3(4H)-one] | ≥ 10 µM | ≥ 10 µM | 
15 | O=C1COc2ccc(C3(O)c4ccccc4C(=O)N3Cc3cc(Br)ccc3F)cc2N1 (centres unmarked) [Entry 51, 6-{2-[(5-bromo-2-fluorophenyl)methyl]-1-hydroxy-3-oxo-2,3-dihydro-1H-isoindol-1-yl}-2H-1,4-benzoxazin-3(4H)-one] | 1 to 10 µM | 1 to 10 µM | 

Second part, the compound after the results:

Row | IC50 (B-Raf; read-out: bRaf IC50) | IC50 (c-Raf) | IC50 (B-Raf; [1]) | SMILES
16 | 1 to 10 µM | 1 to 10 µM |  | O=C1COc2ccc(C3(O)c4ccccc4C(=O)N3Cc3cccc([N+](=O)[O-])c3)cc2N1 (centres unmarked) [Entry 52, 6-{1-hydroxy-2-[(3-nitrophenyl)methyl]-3-oxo-2,3-dihydro-1H-isoindol-1-yl}-2H-1,4-benzoxazin-3(4H)-one]
17 | ≥ 10 µM | ≥ 10 µM |  | O=C1COc2ccc(C3(O)c4ccccc4C(=O)N3Cc3cccc(C(F)(F)F)c3)cc2N1 (centres unmarked) [Entry 53, 6-(1-hydroxy-3-oxo-2-{[3-(trifluoromethyl)phenyl]methyl}-2,3-dihydro-1H-isoindol-1-yl)-2H-1,4-benzoxazin-3(4H)-one]
18 | ≥ 10 µM | ≥ 10 µM |  | COc1cccc(CN2C(=O)c3ccccc3C2(O)c2ccc3c(c2)NC(=O)CO3)c1OC (centres unmarked) [Entry 54]
19 | 1 to 10 µM | 1 to 10 µM |  | O=C1COc2ccc(C3(O)c4ccccc4C(=O)N3Cc3cccc(I)c3)cc2N1 (centres unmarked) [Entry 55, 6-{1-hydroxy-2-[(3-iodophenyl)methyl]-3-oxo-2,3-dihydro-1H-isoindol-1-yl}-2H-1,4-benzoxazin-3(4H)-one]
20 |  |  | < 0.1 µM | COC(=O)Nc1nc2ccc(C(=O)c3ccccc3C(=O)Nc3cccc(C)c3)cc2[nH]1 [Entry 393, methyl {6-[(2-{[(3-methylphenyl)amino]carbonyl}phenyl)carbonyl]-1H-benzimidazol-2-yl}carbamate]
21 |  |  | < 0.1 µM | COC(=O)Nc1nc2ccc(C(=O)c3ccccc3C(=O)Nc3cccc(F)c3)cc2[nH]1 [Entry 396, methyl {6-[(2-{[(3-fluorophenyl)amino]carbonyl}phenyl)carbonyl]-1H-benzimidazol-2-yl}carbamate]
22 |  |  | < 0.1 µM | CCc1cccc(NC(=O)c2ccccc2C(=O)c2ccc3nc(NC(=O)OC)[nH]c3c2)c1 [Entry 399, methyl {6-[(2-{[(3-ethylphenyl)amino]carbonyl}phenyl)carbonyl]-1H-benzimidazol-2-yl}carbamate]
23 |  |  | < 0.1 µM | C#Cc1cccc(NC(=O)c2ccccc2C(=O)c2ccc3nc(NC(=O)OC)[nH]c3c2)c1 [Entry 400, methyl {6-[(2-{[(3-ethynylphenyl)amino]carbonyl}phenyl)carbonyl]-1H-benzimidazol-2-yl}carbamate]
24 |  |  | < 0.1 µM | COC(=O)Nc1nc2ccc(C(=O)c3ccccc3C(=O)Nc3cccc(I)c3)cc2[nH]1 [Entry 403, methyl {6-[(2-{[(3-iodophenyl)amino]carbonyl}phenyl)carbonyl]-1H-benzimidazol-2-yl}carbamate]
25 |  |  | < 0.1 µM | COC(=O)Nc1nc2ccc(C(=O)c3ccccc3C(=O)Nc3cccc(C(C)C)c3)cc2[nH]1 [Entry 404, methyl (6-{[2-({[3-(1-methylethyl)phenyl]amino}carbonyl)phenyl]carbonyl}-1H-benzimidazol-2-yl)carbamate]
26 |  |  | < 0.1 µM | COC(=O)Nc1nc2ccc(C(=O)c3ccccc3C(=O)NCc3ccsc3)cc2[nH]1 [Entry 405, methyl {6-[(2-{[(3-thienylmethyl)amino]carbonyl}phenyl)carbonyl]-1H-benzimidazol-2-yl}carbamate]
27 |  |  | < 0.1 µM | COC(=O)Nc1nc2ccc(C(=O)c3ccccc3C(=O)Nc3cc(Br)ccc3F)cc2[nH]1 [Entry 409, methyl {6-[(2-{[(5-bromo-2-fluorophenyl)amino]carbonyl}phenyl)carbonyl]-1H-benzimidazol-2-yl}carbamate]
28 |  |  | < 0.1 µM | COC(=O)Nc1nc2ccc(C(=O)c3ccccc3C(=O)Nc3cccc(Br)c3F)cc2[nH]1 [Entry 412, methyl {6-[(2-{[(3-bromo-2-fluorophenyl)amino]carbonyl}phenyl)carbonyl]-1H-benzimidazol-2-yl}carbamate]
29 |  |  | < 0.1 µM | COC(=O)Nc1nc2ccc(C(=O)c3ccccc3C(=O)Nc3cc(Cl)ccc3C)cc2[nH]1 [Entry 415, methyl {6-[(2-{[(5-chloro-2-methylphenyl)amino]carbonyl}phenyl)carbonyl]-1H-benzimidazol-2-yl}carbamate]
30 |  |  | < 0.1 µM | COC(=O)Nc1nc2ccc(C(=O)c3ccccc3C(=O)Nc3cc(Br)ccc3C)cc2[nH]1 [Entry 416, methyl {6-[(2-{[(5-bromo-2-methylphenyl)amino]carbonyl}phenyl)carbonyl]-1H-benzimidazol-2-yl}carbamate]
31 |  |  | < 0.1 µM | COC(=O)Nc1nc2ccc(C(=O)c3ccccc3C(=O)Nc3cccc(I)c3F)cc2[nH]1 [Entry 417, methyl {6-[(2-{[(2-fluoro-3-iodophenyl)amino]carbonyl}phenyl)carbonyl]-1H-benzimidazol-2-yl}carbamate]

Source: patent publication US7846959B2, “Raf modulators and methods of use” (Exelixis, Inc., priority 2004, dated 2010)
